Laboratory results published in US20070219186A1, “Pyrazolo[1,5-A]pyrimidine derivatives and methods of use thereof” (priority 2006, published 2007).
Read-outs that look alike come from different tables or passages of the source.

Molecular target: T1, human B-Raf (Homo sapiens, UniProt P15056)
T1 construct: Flag; GST; made in house; host or cells: Sf9 insect cells (B-Raf); E. coli (MEK1-GST)
Assay: B-Raf Kinase to MEK1 ELISA
Format: biochemical
Details: for inhibition at 10 µM: read-out: % Inhib./10 uM
Method in brief: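 Read-out is a DELFIA europium signal from phospho-MEK1 (Ser217/221) antibody after capture of GST-MEK1 (50 nM final) on anti-GST plates. Phosphorylation comes from Sf9-expressed Flag/GST human B-Raf (~20 ng) with ATP/MgCl2, 60 min RT, pH 7.2 MOPS.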

[1] = median, cpd concentrations from 10 μM to 30 nM in half log dilutions, read-out: Median IC50

T1 sequence (P15056 whole entry): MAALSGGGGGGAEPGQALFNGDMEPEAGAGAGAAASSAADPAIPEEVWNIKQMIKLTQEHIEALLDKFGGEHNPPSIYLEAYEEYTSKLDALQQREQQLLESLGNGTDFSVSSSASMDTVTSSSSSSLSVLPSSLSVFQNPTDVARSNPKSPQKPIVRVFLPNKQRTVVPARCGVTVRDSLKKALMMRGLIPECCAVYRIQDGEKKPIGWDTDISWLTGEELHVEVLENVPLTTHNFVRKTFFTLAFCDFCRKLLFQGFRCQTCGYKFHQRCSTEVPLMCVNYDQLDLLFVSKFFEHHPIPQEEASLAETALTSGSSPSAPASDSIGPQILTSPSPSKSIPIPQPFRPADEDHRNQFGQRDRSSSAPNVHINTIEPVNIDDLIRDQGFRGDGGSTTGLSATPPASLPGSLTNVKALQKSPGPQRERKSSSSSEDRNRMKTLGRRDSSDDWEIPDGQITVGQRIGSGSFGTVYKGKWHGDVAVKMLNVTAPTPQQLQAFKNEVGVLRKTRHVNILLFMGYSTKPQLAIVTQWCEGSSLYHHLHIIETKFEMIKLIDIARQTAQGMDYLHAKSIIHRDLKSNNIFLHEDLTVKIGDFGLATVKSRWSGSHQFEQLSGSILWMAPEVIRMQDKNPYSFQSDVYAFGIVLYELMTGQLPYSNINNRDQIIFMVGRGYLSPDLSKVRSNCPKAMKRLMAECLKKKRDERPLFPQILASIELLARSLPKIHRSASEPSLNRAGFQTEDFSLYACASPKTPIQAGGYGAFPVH

Compound	IC50 [1]	inhibition at 10 µM	% Inhib./10 uM (single point assay, 10 uM)	IC50
COc1ccc(C(=O)Nc2cccc(-c3ccnc4cc(-c5ccncc5)nn34)c2)cc1C(F)(F)F [Example 130, 4-methoxy-N-[3-(2-pyridin-4-ylpyrazolo[1,5-a]pyrimidin-7-yl)phenyl]-3-(trifluoromethyl)benzamide]	70 nM	91%		
O=C(Nc1cccc(-c2ccnc3cc(-c4ccncc4)nn23)c1)Nc1ccc(F)c(C(F)(F)F)c1 [Example 131, N-[4-fluoro-3-(trifluoromethyl)phenyl]-N′-[3-(2-pyridin-4-ylpyrazolo[1,5-a]pyrimidin-7-yl)phenyl]urea]	30 nM	98%		
O=C(Nc1cccc(-c2ccnc3cc(-c4ccncc4)nn23)c1)Nc1ccc(Cl)c(C(F)(F)F)c1 [Example 133, N-[4-chloro-3-(trifluoromethyl)phenyl]-N′-[3-(2-pyridin-4-ylpyrazolo[1,5-a]pyrimidin-7-yl)phenyl]urea]	30 nM		98%	
Cc1ccc(C(=O)Nc2cccc(-c3ccnc4cc(-c5ccncc5)nn34)c2)cc1C(F)(F)F [Example 134, 4-methyl-N-[3-(2-pyridin-4-ylpyrazolo[1,5-a]pyrimidin-7-yl)phenyl]-3-(trifluoromethyl)benzamide]	40 nM	96%		
O=C(Nc1cccc(-c2ccnc3cc(-c4ccc(CO)cc4)nn23)c1)c1cccc(C(F)(F)F)c1 [Example 135, N-(3-{2-[4-(hydroxymethyl)phenyl]pyrazolo[1,5-a]pyrimidin-7-yl}phenyl)-3-(trifluoromethyl)benzamide]	> 10000 nM	32%		
COc1ccc(-c2cc3nccc(-c4cccc(NC(=O)c5cccc(C(F)(F)F)c5)c4)n3n2)cc1 [Example 136, N-{3-[2-(4-methoxyphenyl)pyrazolo[1,5-a]pyrimidin-7-yl]phenyl}-3-(trifluoromethyl)benzamide]		35%		> 10000 nM
O=C(Nc1cccc(-c2ccnc3cc(-c4cccc(C(F)(F)F)c4)nn23)c1)c1cccc(C(F)(F)F)c1 [Example 137, 3-(trifluoromethyl)-N-(3-{2-[3-(trifluoromethyl)phenyl]pyrazolo[1,5-a]pyrimidin-7-yl}phenyl)benzamide]	> 10000 nM			
CC(C)(C)c1cc2nccc(-c3cccc(NC(=O)c4cccc(C(F)(F)F)c4)c3)n2n1 [Example 138, N-[3-(2-tert-butylpyrazolo[1,5-a]pyrimidin-7-yl)phenyl]-3-(trifluoromethyl)benzamide]	> 10000 nM	46%		

Now from value to compound:

IC50 [1]	inhibition at 10 µM	% Inhib./10 uM (single point assay, 10 uM)	IC50	Compound
> 10000 nM	35%			O=C(Nc1cccc(-c2ccnc3cc(-c4ccc(F)cc4)nn23)c1)c1cccc(C(F)(F)F)c1 [Example 139, N-{3-[2-(4-fluorophenyl)pyrazolo[1,5-a]pyrimidin-7-yl]phenyl}-3-(trifluoromethyl)benzamide]
> 10000 nM	39%			CCOCOCc1ccc(-c2cc3nccc(-c4cccc(NC(=O)c5cccc(C(F)(F)F)c5)c4)n3n2)cc1 [Example 140, N-[3-(2-{4-[(ethoxymethoxy)methyl]phenyl}pyrazolo[1,5-a]pyrimidin-7-yl)phenyl]-3-(trifluoromethyl)benzamide]
> 10000 nM	32%			COC(=O)c1cccc(-c2cc3nccc(-c4cccc(NC(=O)c5cccc(C(F)(F)F)c5)c4)n3n2)c1 [Example 141, methyl 3-[7-(3-{[3-(trifluoromethyl)benzoyl]amino}phenyl)pyrazolo[1,5-a]pyrimidin-2-yl]benzoate]
140 nM	92%			O=C(Nc1cccc(-c2ccnc3c(Br)cnn23)c1)Nc1ccc(Cl)c(C(F)(F)F)c1 [Example 143, N-[3-(3-bromopyrazolo[1,5-a]pyrimidin-7-yl)phenyl]-N′-[4-chloro-3-(trifluoromethyl)phenyl]urea]
> 10000 nM	15%			O=C(Nc1cccc(-c2ccnc3cc(-c4ccncc4)nn23)c1)c1ccccc1 [Example 144, N-[3-(2-pyridin-4-ylpyrazolo[1,5-a]pyrimidin-7-yl)phenyl]benzamide]
